{
  "source": "paper PMC12399569",
  "about": "“Disruption of Spike Priming in Virus Entry: Tetrandrine as a Pan‐Coronavirus Inhibitor” (MedComm, 2025)",
  "target": "T1, SARS-CoV-2 Spike (Severe acute respiratory syndrome coronavirus 2, UniProt P0DTC2)",
  "T1 construct": "gene S",
  "test": "SPR (Reichert4, CM5 chip, Spike immobilised)",
  "format": "binding",
  "data": [
    {"smiles": "COc1ccc2cc1Oc1ccc(cc1)C[C@H]1c3cc(c(OC)cc3CCN1C)Oc1c(OC)c(OC)cc3c1[C@H](C2)N(C)CC3", "note": "[tetrandrine]", "values": [
      {"measurement": "Kd", "result": "~2230", "unit": "nM"}
    ]}
  ]
}
